Data reported in US20130303509A1, “NAMPT INHIBITORS” (AbbVie Inc., priority 2012, published 2013).

System: PC3 cells
Test: NAMPT Cell Proliferation Assay
Type: cell-based
Conditions: Homo sapiens, PC-3, 120 h, 5 days incubation, cell viability by Cell Titer Glo
How it was run: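 Seeded at 500 cells/well in RPMI with 10% heat-inactivated FBS and left to attach overnight at 37° C, 5% CO2. Compounds were added as 10-fold dilutions […] for 5 days, then viability was read by CellTiter-Glo. IC50s came from sigmoidal fits of percent inhibition.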

IC50 [nM] | Structure (SMILES)
6.27 | CCC(C)(C)C(=O)N1CCC(c2ccc(NC(=O)[C@H]3CCN(c4cccnn4)C3)cc2)CC1 [Example 718, (3S)-N-{4-[1-(2,2-dimethylbutanoyl)piperidin-4-yl]phenyl}-1-(pyridazin-3-yl)pyrrolidine-3-carboxamide]
9.09 | O=C(Nc1ccc(OC2CCN(C(=O)C3CCOCC3)CC2)cc1)C1CN(c2cccnn2)C1 [Example 214, 1-(pyridazin-3-yl)-N-(4-{[1-(tetrahydro-2H-pyran-4-ylcarbonyl)piperidin-4-yl]oxy}phenyl)azetidine-3-carboxamide]
22.4 | Cc1ncccc1N1CC(C(=O)Nc2ccc(C3CCN(C(=O)c4cccn4C)CC3)cc2)C1 [Example 188, 1-(2-methylpyridin-3-yl)-N-(4-{1-[(1-methyl-1H-pyrrol-2-yl)carbonyl]piperidin-4-yl}phenyl)azetidine-3-carboxamide]
2.37 | CC(C)CC(=O)N1CCC(c2ccc(NC(=O)C3CN(c4cccnn4)C3)cc2)CC1 [Example 320, N-{4-[1-(3-methylbutanoyl)piperidin-4-yl]phenyl}-1-(pyridazin-3-yl)azetidine-3-carboxamide]
329 | Cc1ncccc1N1CC(C(=O)Nc2ccc(C3CCN(C(=O)CCC(F)(F)F)CC3)cc2)C1 [Example 172, 1-(2-methylpyridin-3-yl)-N-{4-[1-(4,4,4-trifluorobutanoyl)piperidin-4-yl]phenyl}azetidine-3-carboxamide]
4.07 | CC(C)(C)C(=O)N1CC[C@@H](Oc2ccc(NC(=O)[C@H]3CCN(c4cccnn4)C3)cc2)C1 [Example 780, (3S)-N-(4-{[(3R)-1-(2,2-dimethylpropanoyl)pyrrolidin-3-yl]oxy}phenyl)-1-(pyridazin-3-yl)pyrrolidine-3-carboxamide]
0.63 | CC1(C(=O)N2CCC(c3ccc(NC(=O)C4CN(c5cccnc5)C4)cc3)CC2)CCCCC1 [Example 117, N-(4-{1-[(1-methylcyclohexyl)carbonyl]piperidin-4-yl}phenyl)-1-(pyridin-3-yl)azetidine-3-carboxamide]
3.91 | O=C(Nc1ccc(C2CCN(C(=O)Cc3ccccc3F)CC2)cc1)C1CN(c2ccnnc2)C1 [Example 540, N-(4-{1-[(2-fluorophenyl)acetyl]piperidin-4-yl}phenyl)-1-(pyridazin-4-yl)azetidine-3-carboxamide]
1.96 | CC(=O)C(=O)N1CCC(c2ccc(NC(=O)C3CN(c4cccnn4)C3)cc2)CC1 [Example 438, N-{4-[1-(2-oxopropanoyl)piperidin-4-yl]phenyl}-1-(pyridazin-3-yl)azetidine-3-carboxamide]
9.99 | C#CCCC(=O)N1CCC(c2ccc(NC(=O)[C@H]3CCN(c4cccnn4)C3)cc2)CC1 [Example 713, (3S)-N-{4-[1-(pent-4-ynoyl)piperidin-4-yl]phenyl}-1-(pyridazin-3-yl)pyrrolidine-3-carboxamide]
13.7 | O=C(Nc1ccc(C2CCN(C(=O)C3CCCO3)CC2)cc1)C1CN(c2ccnnc2)C1 (centres unmarked) [Example 538, 1-(pyridazin-4-yl)-N-{4-[1-(tetrahydrofuran-2-ylcarbonyl)piperidin-4-yl]phenyl}azetidine-3-carboxamide]
0.76 | O=C(Nc1ccc(C2CCN(C(=O)CCC(F)(F)F)CC2)cc1)C1CN(c2cccnc2)C1 [Example 112, 1-(pyridin-3-yl)-N-{4-[1-(4,4,4-trifluorobutanoyl)piperidin-4-yl]phenyl}azetidine-3-carboxamide]
7.4 | O=C(Nc1ccc(C2CCN(C(=O)C3CCOC3)CC2)cc1)C1CN(c2cccnn2)C1 (centres unmarked) [Example 414, 1-(pyridazin-3-yl)-N-{4-[1-(tetrahydrofuran-3-ylcarbonyl)piperidin-4-yl]phenyl}azetidine-3-carboxamide]
3.31 | O=C(Nc1ccc(OC2CCN(C(=O)c3ccoc3)CC2)cc1)C1CN(c2cccnc2)C1 [Example 54, N-(4-{[1-(furan-3-ylcarbonyl)piperidin-4-yl]oxy}phenyl)-1-(pyridin-3-yl)azetidine-3-carboxamide]
606 | O=C(Nc1ccc(OC2CN(C(=O)Cc3ccc(F)cc3)C2)cc1)C1CN(c2ccnnc2)C1 [Example 203, N-[4-({1-[(4-fluorophenyl)acetyl]azetidin-3-yl}oxy)phenyl]-1-(pyridazin-4-yl)azetidine-3-carboxamide]
190 | O=C(N[C@H]1CCN(c2cccnn2)C1)c1ccc(C2CCN(C(=O)c3ccc(F)cc3)CC2)s1 [Example 755, 5-[1-(4-fluorobenzoyl)piperidin-4-yl]-N-[(3S)-1-(pyridazin-3-yl)pyrrolidin-3-yl]thiophene-2-carboxamide]
2.36 | O=C(Nc1ccc(C2CCN(C(=O)c3cccc(Cl)c3)CC2)cc1)C1CN(c2cccnn2)C1 [Example 351, N-{4-[1-(3-chlorobenzoyl)piperidin-4-yl]phenyl}-1-(pyridazin-3-yl)azetidine-3-carboxamide]
6.38 | CCC(=O)N1CCC(Oc2ccc(NC(=O)C3CN(c4cccnc4)C3)cc2)CC1 [Example 65, N-{4-[(1-propanoylpiperidin-4-yl)oxy]phenyl}-1-(pyridin-3-yl)azetidine-3-carboxamide]

IC50 [nM] | Structure (SMILES)
1020 | O=C(N[C@H]1CCN(c2cccnn2)C1)c1ccc(C2CCN(C(=O)C3CCOC3)CC2)s1 (stereo partly drawn) [Example 765, N-[(3S)-1-(pyridazin-3-yl)pyrrolidin-3-yl]-5-[1-(tetrahydrofuran-3-ylcarbonyl)piperidin-4-yl]thiophene-2-carboxamide]
6.84 | O=C(Nc1ccc(O[C@@H]2CCN(C(=O)c3ccccn3)C2)cc1)C1CN(c2cccnn2)C1 [Example 505, 1-(pyridazin-3-yl)-N-(4-{[(3R)-1-(pyridin-2-ylcarbonyl)pyrrolidin-3-yl]oxy}phenyl)azetidine-3-carboxamide]
787 | O=C(N[C@H]1CCN(c2cccnn2)C1)c1ccc(C2CCN(C(=O)[C@H]3CCCO3)CC2)s1 [Example 766, N-[(3S)-1-(pyridazin-3-yl)pyrrolidin-3-yl]-5-{1-[(2R)-tetrahydrofuran-2-ylcarbonyl]piperidin-4-yl}thiophene-2-carboxamide]
0.94 | O=C(Nc1ccc(C2CCN(C(=O)c3nccs3)CC2)cc1)C1CN(c2ccnnc2)C1 [Example 526, 1-(pyridazin-4-yl)-N-{4-[1-(1,3-thiazol-2-ylcarbonyl)piperidin-4-yl]phenyl}azetidine-3-carboxamide]
8.16 | O=C(Nc1ccc(C2CCN(C(=O)c3cccc4ccccc34)CC2)cc1)[C@H]1CCN(c2cccnn2)C1 [Example 639, (3S)-N-{4-[1-(naphthalen-1-ylcarbonyl)piperidin-4-yl]phenyl}-1-(pyridazin-3-yl)pyrrolidine-3-carboxamide]
6.3 | O=C(Nc1ccc(O[C@@H]2CCN(C(=O)Cc3ccc(F)cc3F)C2)cc1)C1CN(c2cccnn2)C1 [Example 496, N-[4-({(3R)-1-[(2,4-difluorophenyl)acetyl]pyrrolidin-3-yl}oxy)phenyl]-1-(pyridazin-3-yl)azetidine-3-carboxamide]
6.57 | O=C(Nc1ccc(C2CCN(C(=O)Cc3ccccc3F)CC2)cc1)C1CN(c2cccnn2)C1 [Example 366, N-(4-{1-[(2-fluorophenyl)acetyl]piperidin-4-yl}phenyl)-1-(pyridazin-3-yl)azetidine-3-carboxamide]
6.77 | CC(C)CC(=O)N1CCC(Oc2ccc(NC(=O)C3CN(c4cccnc4)C3)cc2)CC1 [Example 45, N-(4-{[1-(3-methylbutanoyl)piperidin-4-yl]oxy}phenyl)-1-(pyridin-3-yl)azetidine-3-carboxamide]
8.94 | O=C(Nc1ccc(C2CCN(C(=O)Cc3ccc(C(F)(F)F)cc3)CC2)cc1)C1CN(c2cccnn2)C1 [Example 371, 1-(pyridazin-3-yl)-N-[4-(1-{[4-(trifluoromethyl)phenyl]acetyl}piperidin-4-yl)phenyl]azetidine-3-carboxamide]
2.14 | CCCC(C)C(=O)N1CCC(c2ccc(NC(=O)C3CN(c4cccnn4)C3)cc2)CC1 (centres unmarked) [Example 322, N-{4-[1-(2-methylpentanoyl)piperidin-4-yl]phenyl}-1-(pyridazin-3-yl)azetidine-3-carboxamide]
2.57 | Cc1ccc(C(=O)N2CCC(c3ccc(NC(=O)C4CN(c5ccnnc5)C4)cc3)CC2)s1 [Example 539, N-(4-{1-[(5-methylthiophen-2-yl)carbonyl]piperidin-4-yl}phenyl)-1-(pyridazin-4-yl)azetidine-3-carboxamide]
182 | CCCCC(=O)N1CCC(c2ccc(NC(=O)C3CN(c4cccnc4C)C3)cc2)CC1 [Example 159, 1-(2-methylpyridin-3-yl)-N-[4-(1-pentanoylpiperidin-4-yl)phenyl]azetidine-3-carboxamide]
4.72 | O=C(Nc1ccc(O[C@@H]2CCN(C(=O)CC(F)(F)F)C2)cc1)C1CN(c2cccnn2)C1 [Example 521, 1-(pyridazin-3-yl)-N-(4-{[(3R)-1-(3,3,3-trifluoropropanoyl)pyrrolidin-3-yl]oxy}phenyl)azetidine-3-carboxamide]
0.68 | O=C(Nc1ccc(O[C@@H]2CCN(C(=O)c3ccsc3)C2)cc1)C1CN(c2cccnn2)C1 [Example 490, 1-(pyridazin-3-yl)-N-(4-{[(3R)-1-(thiophen-3-ylcarbonyl)pyrrolidin-3-yl]oxy}phenyl)azetidine-3-carboxamide]
24.5 | O=C(Nc1ccc(C2CCN(C(=O)CC3CCCC3)CC2)cc1)[C@H]1CCN(c2cccnc2)C1 [Example 204, (3S)—N-{4-[1-(cyclopentylacetyl)piperidin-4-yl]phenyl}-1-(pyridin-3-yl)pyrrolidine-3-carboxamide]
6.56 | O=C(Nc1ccc(OC2CCN(C(=O)CC3CCOCC3)CC2)cc1)C1CN(c2cccnc2)C1 [Example 1, 1-(pyridin-3-yl)-N-(4-{[1-(tetrahydro-2H-pyran-4-ylacetyl)piperidin-4-yl]oxy}phenyl)azetidine-3-carboxamide]
3.72 | CC(C)(C)c1ccc(C(=O)N2CCC(c3ccc(NC(=O)C4CN(c5cccnn5)C4)cc3)CC2)cc1 [Example 393, N-{4-[1-(4-tert-butylbenzoyl)piperidin-4-yl]phenyl}-1-(pyridazin-3-yl)azetidine-3-carboxamide]
